Series [1] is described as follows: Rat pharmacokinetics, blood LL-37 by ELISA after gavage. The class given is in vivo, SD rats. Particulars: male, SD, serum, po. (In general: ELISA stands for enzyme-linked immunosorbent assay.)
Series [2] has as its system rVSV-SARS. The conditions noted are these: 2 h, 10 ug/ml.
Series [3] is described as follows: Acute and subchronic toxicity test in rats. It counts as in vivo. The conditions noted are these: SD rats, oral gavage, 100 times of the expected clinical dose.
For series [4] the following is noted: 6.0E10/kg·day by gavage, end of two weeks, n=5, Mean ± SEM.

Molecules are shown by their SMILES. Where two headings read alike, the source gives them in different places.

In series [1], `CC[C@H](C)[C@H](NC(=O)[C@H](CCCCN)NC(=O)[C@H](CCC(=O)O)NC(=O)[C@H](CCCCN)NC(=O)[C@H](CO)NC(=O)[C@H](CCCCN)NC(=O)[C@H](CCCNC(=N)N)NC(=O)[C@H](Cc1ccccc1)NC(=O)[C@H](Cc1ccccc1)NC(=O)[C@H](CC(=O)O)NC(=O)CNC(=O)[C@H](CC(C)C)NC(=O)[C@@H](N)CC(C)C)C(=O)NCC(=O)N[C@@H](CCCCN)C(=O)N[C@@H](CCC(=O)O)C(=O)N[C@@H](Cc1ccccc1)C(=O)N[C@@H](CCCCN)C(=O)N[C@@H](CCCNC(=N)N)C(=O)N[C@H](C(=O)N[C@H](C(=O)N[C@@H](CCC(N)=O)C(=O)N[C@@H](CCCNC(=N)N)C(=O)N[C@H](C(=O)N[C@@H](CCCCN)C(=O)N[C@@H](CC(=O)O)C(=O)N[C@@H](Cc1ccccc1)C(=O)N[C@@H](CC(C)C)C(=O)N[C@@H](CCCNC(=N)N)C(=O)N[C@@H](CC(N)=O)C(=O)N[C@@H](CC(C)C)C(=O)N[C@H](C(=O)N1CCC[C@H]1C(=O)N[C@@H](CCCNC(=N)N)C(=O)N[C@H](C(=O)N[C@@H](CCC(=O)O)C(=O)N[C@@H](CO)C(=O)O)[C@@H](C)O)C(C)C)[C@@H](C)CC)C(C)C)[C@@H](C)CC` [LL-37] displayed a level at 1 h of 0.7 ng/mL, a level at 2 h of 1.65 ng/mL, a level at 4 h of 0.92 ng/mL and a level at 6 h of 0.14 ng/mL. Moreover, in series [2], the “maximum inhibition rate, rVSV-SARS” value turned out to be 85%. Besides, in series [3], the LD50 entry is “more than 6 × 10^10 CFU/kg/ day”. In series [4] (female SD rats), the CK turned out to be 715.56±343.35 U/L, the TC amounted to 1.30 ± 0.20 mM and the TG turned out to be 0.33 ± 0.07 mM. In series [4] (male SD rats), this compound showed a CK of 661.02±93.22 U/L and a TG of 0.29 ± 0.03 mM.

(Values after article doi:10.1101/2020.05.11.20064584v1 (medRxiv, 2020).)
